These results are taken from patent US9890155B2, “Aza-oxo-indoles for the treatment and prophylaxis of respiratory syncytial virus infection” (Hoffmann-La Roche Inc., priority 2013, dated 2018).

One experiment relates to RSV Long strain. In words: Viral Cytopathic Effect (CPE) Assay. It is filed as cell-based. The note with it: human respiratory syncytial virus, 144 h, cell viability after 6 days (Cell Counting kit-8). As for the experimental part:
EC50: the concentration of a compound where 50% of its maximal protection effect against viral induced CPE is observed
LongStrain: an A subtype RSV strain obtained from ATCC with catalog number VR-26
To measure anti-RSV activity of compounds, 96-well plates are seeded with 6×10^3 cells per well in Dulbecco's modified Eagle's medium (DMEM) containing 10% fetal bovine serum (FBS). Cells are infected the next day with sufficient RSV Long strain (ATCC) to produce an approximately 80-90% cytopathic effect after 6 days, in the presence of serial half-log diluted compound in a total volume of 200 μL per well. The viability of cells is assessed after 6 days using Cell Counting kit-8 (Dojindo Molecular Technologies). The absorbance at 450 nm and referenced at 630 nm is measured to determine 50% effective concentration (EC50).
(Damage to the host cells serves as the signal in cytopathic effect assays.)

In another experiment the test system is RSV infection. The note with it: intramuscularly 15 mg/kg once a month for the RSV season, selected infants; cited from earlier work.

On to `N#Cc1ccc(-n2c(CN3C(=O)C4(CC4)c4ccncc43)nc3cc(Cl)ccc32)cn1` [Example 1, 5-{5-Chloro-2-[(2′-oxospiro[cyclopropane-1,3′-pyrrolo[2,3-c]pyridin]-1′(2′H)-yl)methyl]-1H-benzimidazol-1-yl}pyridine-2-carbonitrile], for which the EC50 (commonly the midpoint of the concentration-response curve) in the experiment on RSV Long strain was 0.7 nM. Same read-out and setting: as for `CS(=O)(=O)c1cc(-n2c(CN3C(=O)C4(CC4)c4ccncc43)nc3cc(Cl)ccc32)ccn1` [Example 2-1, 1′-({5-Chloro-1-[2-(methylsulfonyl)pyridin-4-yl]-1H-benzimidazol-2-yl}methyl)spiro[cyclopropane-1,3′-pyrrolo[2,3-c]pyridin]-2′(1′H)-one], the figure is 65 nM; as for `CCS(=O)(=O)c1ccnc(-n2c(CN3C(=O)C4(CC4)c4ccncc43)nc3cc(Cl)ccc32)c1` [Example 2-2, 1′-({5-Chloro-1-[4-(ethylsulfonyl)pyridin-2-yl]-1H-benzimidazol-2-yl}methyl)spiro[cyclopropane-1,3′-pyrrolo[2,3-c]pyridin]-2′(1′H)-one], 21 nM. `CCOC(=O)Cc1ccc(-n2c(CN3C(=O)C4(CC4)c4ccncc43)nc3cc(Cl)ccc32)cc1` [Example 3, Ethyl(4-{5-chloro-2-[(2′-oxospiro[cyclopropane-1,3′-pyrrolo[2,3-c]pyridin]-1′(2′H)-yl)methyl]-1H-benzimidazol-1-yl}phenyl)acetate] displayed an EC50 in the experiment with RSV Long strain of 14 nM. On the same count and under the same terms, as for `O=C1N(Cc2nc3cc(Cl)ccc3n2-c2ccccc2)c2cnccc2C12CC2` [Example 4-1, 1′-[(5-Chloro-1-phenyl-1H-benzimidazol-2-yl)methyl]spiro[cyclopropane-1,3′-pyrrolo[2,3-c]pyridin]-2′(1′H)-one], the figure is 17 nM. On the same count and under the same terms, to `CCOC(=O)c1ccc(-n2c(CN3C(=O)C4(CC4)c4ccncc43)nc3cc(Cl)ccc32)cc1` [Example 4-2, Ethyl 4-{5-chloro-2-[(2′-oxospiro[cyclopropane-1,3′-pyrrolo[2,3-c]pyridin]-1′(2′H)-yl)methyl]-1H-benzimidazol-1-yl}benzoate] belongs 6 nM. The same measure, in the same setting: as for `CS(=O)(=O)c1ccc(-n2c(CN3C(=O)C4(CC4)c4ccncc43)nc3cc(Cl)ccc32)cn1` [Example 4-3, 1′-({5-Chloro-1-[6-(methylsulfonyl)pyridin-3-yl]-1H-benzimidazol-2-yl}methyl)spiro[cyclopropane-1,3′-pyrrolo[2,3-c]pyridin]-2′(1′H)-one], the figure is 4 nM. Compound `CS(=O)(=O)c1cccc(-n2c(CN3C(=O)C4(CC4)c4ccncc43)nc3cc(Cl)ccc32)c1` [Example 4-4, 1′-({5-chloro-1-[3-(methylsulfonyl)phenyl]-1H-benzimidazol-2-yl}methyl)spiro[cyclopropane-1,3′-pyrrolo[2,3-c]pyridin]-2′(1′H)-one] returned a concentration giving a half-maximal response (EC50) in the experiment on RSV Long strain of 8 nM. On the same count and under the same terms, as for `CS(=O)(=O)c1ccc(-n2c(CN3C(=O)C4(CC4)c4ccncc43)nc3cc(Cl)ccc32)cc1` [Example 4-5, 1′-({5-Chloro-1-[4-(methylsulfonyl)phenyl]-1H-benzimidazol-2-yl}methyl)spiro[cyclopropane-1,3′-pyrrolo[2,3-c]pyridin]-2′(1′H)-one], the figure is 5 nM; as for `COC(=O)c1cccc(-n2c(CN3C(=O)C4(CC4)c4ccncc43)nc3cc(Cl)ccc32)c1` [Example 4-6, Methyl 3-{5-chloro-2-[(2′-oxospiro[cyclopropane-1,3′-pyrrolo[2,3-c]pyridin]-1′(2′H)-yl)methyl]-1H-benzimidazol-1-yl}benzoate], 16 nM; as for `N#Cc1cccc(-n2c(CN3C(=O)C4(CC4)c4ccncc43)nc3cc(Cl)ccc32)c1` [Example 4-7, 3-{5-Chloro-2-[(2′-oxospiro[cyclopropane-1,3′-pyrrolo[2,3-c]pyridin]-1′(2′H)-yl)methyl]-1H-benzimidazol-1-yl}benzonitrile], 7 nM. On to `CC(=O)c1cccc(-n2c(CN3C(=O)C4(CC4)c4ccncc43)nc3cc(Cl)ccc32)c1` [Example 4-8, 1′-{[1-(3-Acetylphenyl)-5-chloro-1H-benzimidazol-2-yl]methyl}spiro[cyclopropane-1,3′-pyrrolo[2,3-c]pyridin]-2′(1′H)-one], for which the half-maximal effective concentration (EC50) with RSV Long strain worked out at 19 nM.

For `COc1ccc(-n2c(CN3C(=O)C4(CC4)c4ccncc43)nc3cc(Cl)ccc32)cn1` [Example 4-9, 1′-{[5-Chloro-1-(6-methoxypyridin-3-yl)-1H-benzimidazol-2-yl]methyl}spiro[cyclopropane-1,3′-pyrrolo[2,3-c]pyridin]-2′(1′H)-one], the midpoint of the response with RSV Long strain, the EC50, lay at 11 nM. Still for that read-out and setting: as for `CS(=O)(=O)c1cncc(-n2c(CN3C(=O)C4(CC4)c4ccncc43)nc3cc(Cl)ccc32)c1` [Example 5-1, 1′-({5-Chloro-1-[5-(methylsulfonyl)pyridin-3-yl]-1H-benzimidazol-2-yl}methyl)spiro[cyclopropane-1,3′-pyrrolo[2,3-c]pyridin]-2′(1H)-one], the figure is 5 nM; as for `CS(=O)(=O)c1cccc(-n2c(CN3C(=O)C4(CC4)c4ccncc43)nc3cc(Cl)ccc32)n1` [Example 5-2, 1′-({5-Chloro-1-[6-(methylsulfonyl)pyridin-2-yl]-1H-benzimidazol-2-yl}methyl)spiro[cyclopropane-1,3′-pyrrolo[2,3-c]pyridin]-2′(1′H)-one], 5 nM; as for `Cc1cc(-n2c(CN3C(=O)C4(CC4)c4ccncc43)nc3cc(Cl)ccc32)cc(S(C)(=O)=O)c1` [Example 5-3, 1′-({5-Chloro-1-[3-methyl-5-(methylsulfonyl)phenyl]-1H-benzimidazol-2-yl}methyl)spiro[cyclopropane-1,3′-pyrrolo[2,3-c]pyridin]-2′(1′H)-one], 19 nM.

`O=C(O)c1ccc(-n2c(CN3C(=O)C4(CC4)c4ccncc43)nc3cc(Cl)ccc32)cc1` [Example 6-1, 4-{5-Chloro-2-[(2′-oxospiro[cyclopropane-1,3′-pyrrolo[2,3-c]pyridin]-1′(2′H)-yl)methyl]-1H-benzimidazol-1-yl}benzoic acid]: the EC50 with RSV Long strain was 6 nM. For `O=C(O)c1cccc(-n2c(CN3C(=O)C4(CC4)c4ccncc43)nc3cc(Cl)ccc32)c1` [Example 6-2, 3-{5-Chloro-2-[(2′-oxospiro[cyclopropane-1,3′-pyrrolo[2,3-c]pyridin]-1′(2′H)-yl)methyl]-1H-benzimidazol-1-yl}benzoic acid], a half-maximal response in the experiment with RSV Long strain (EC50) required 512 nM. The same measure, in the same setting: to `O=C(O)c1ccc(-n2c(CN3C(=O)C4(CC4)c4ccc(F)cc43)nc3cc(Cl)ccc32)cc1` [Example 6-3, 4-{5-Chloro-2-[(6′-fluoro-2′-oxospiro[cyclopropane-1,3′-indol]-1′(2′H)-yl)methyl]-1H-benzimidazol-1-yl}benzoic acid] belongs 50 nM. Same read-out and setting: as for `NC(=O)c1ccc(-n2c(CN3C(=O)C4(CC4)c4ccncc43)nc3cc(Cl)ccc32)cc1` [Example 7, 4-{5-Chloro-2-[(2′-oxospiro[cyclopropane-1,3′-pyrrolo[2,3-c]pyridin]-1′(2′H)-yl)methyl]-1H-benzimidazol-1-yl}benzamide], the figure is 13 nM; as for `O=C1N(Cc2nc3cc(Cl)ccc3n2-c2ccc(O)nc2)c2cnccc2C12CC2` [Example 8, 1′-{[5-Chloro-1-(6-hydroxypyridin-3-yl)-1H-benzimidazol-2-yl]methyl}spiro[cyclopropane-1,3′-pyrrolo[2,3-c]pyridin]-2′(1′H)-one], 18 nM. Still for that read-out and setting: to `CS(=O)(=O)c1ccc(-c2c(CN3C(=O)C4(CC4)c4ccncc43)[nH]c3cc(Cl)ccc23)cc1` [Example 9-1, 1′-({6-Chloro-3-[4-(methylsulfonyl)phenyl]-1H-indol-2-yl}methyl)spiro[cyclopropane-1,3′-pyrrolo[2,3-c]pyridin]-2′(1′H)-one] belongs 25 nM; to `CS(=O)(=O)c1cccc(-c2c(CN3C(=O)C4(CC4)c4ccncc43)[nH]c3cc(Cl)ccc23)c1` [Example 9-2, 1′-({6-Chloro-3-[3-(methylsulfonyl)phenyl]-1H-indol-2-yl}methyl)spiro[cyclopropane-1,3′-pyrrolo[2,3-c]pyridin]-2′(1′H)-one], 29 nM.

As for “palivizumab: a humanized monoclonal antibody against RSV fusion (F) protein approved for prophylaxis in high-risk infants”, the “reduction of hospitalization rate caused by RSV infection” value in the experiment on RSV infection is given as 45-55%.
